Laboratory results as given in article PMC13355314, “Charged molecular glue discovery enabled by targeted degron display” (Nature Chemical Biology, 2026).
“And” between values parts separate entries of the source, which are not always exact repeats. Equal values may be shown once. “Also recorded” adds a separate entry of the source.

Key:
GSH chemical stability = type: physicochemical; conditions: for half-life: GSH chemical stability; for remaining at 5 min / remaining at […] / remaining at 0.5 h / remaining at 1 h / remaining at 2 h: GSH; for remaining at […]: 15 min; for remaining at 0.5 h: 30 min; for remaining at 1 h: 60 min; for remaining at 2 h: 120 min
Source text: Afatinib Time Peak Area %Remaining Ln T1/2
(Ctrl) (min) Ratio (%remaining) (min)
(min) Ratio (%remaining) (min)

[1] = tested on: ternary complex of *BRD4BD1, ZZ1-SO2H and YPEL5-WDR26; test: Competitive FP disrupting the ternary complex; type: binding, human
Source text: The four-parameter [inhibitor] versus response model was applied to estimate the IC50.

Microsome stability, MLM = type: in vitro ADME; conditions: mouse, liver microsomes; for half-life: read-out: MLM Stability (T1/2 min)
Microsome stability, HLM = type: in vitro ADME; conditions: human, liver microsomes; for half-life: read-out: HLM Stability (T1/2 min)
*BRD4BD1 / YPEL5-CTLH E3 = biological target: T1, *BRD4BD1 / YPEL5-CTLH E3 (Homo sapiens, UniProt O60885+P62699); test: In vitro ubiquitylation assay (YPEL5-CTLH E3, UBE2H); type: biochemical; conditions: YPEL5-CTLH E3-dependent
T1 construct: fluorescent BRD4 bromodomain substrates, either in isolation (BRD4BD1 and BRD4BD2) or in tandem (BRD4BD1+BD2); GST (N, cleaved yes); made in house; host or cells: CTLH E3 and UBA1: High Five insect cells; BRD4BD1, UBE2H, ubiquitin: E. coli BL21 (DE3) RIL
Method: All ubiquitylation assays were performed at room temperature in the final reaction buffer containing 25 mM HEPES pH 7.5, 150 mM NaCl, 0.25 mM DTT, 5 mM ATP and 10 mM MgCl2. Samples at indicated time points were quenched by mixing an aliquot of the total reaction mixture with a reducing Laemmli buffer and subjected to SDS–PAGE. Substrate ubiquitylation was visualized by a fluorescence scan of SDS–PAGE gels using the Amersham Typhoon Imager 600 (GE Healthcare).
The mixture was incubated at room temperature for 1 h and supplemented with 0.2 μM E1 UBA1 and 20 μM ubiquitin to initiate the reaction.

BRD4 = biological target: T2, BRD4 (Homo sapiens, UniProt O60885); test: HiBiT–BRD4 assay (endogenous BRD4 protein levels); type: cell-based
T2 construct: Endogenous BRD4 protein levels were evaluated using the Nano-Glo HiBiT lytic detection system; endogenous in cells; host or cells: Jurkat (HiBiT knock-in; some series in YPEL5-/- cells re-expressing WT or mutant YPEL5-FLAG)
Method: Introduction of a HiBiT coding sequence into the endogenous BRD4 locus in Jurkat cells was achieved using CRISPR–Cas9 genome editing. Alt-R CRISPR RNA (crRNA) and trans-activating crRNA (tracrRNA) (Integrated DNA Technologies) were resuspended in nuclease-free duplex buffer (Integrated DNA Technologies) at a concentration of 200 µM each. Equal volumes of crRNA and tracrRNA were mixed (final concentration of 100 µM each) and heated for 5 min at 95 °C. After heating, the complex was gradually cooled to room temperature. The oligo complex was then incubated at room temperature for 20 min with the Alt-R Cas9 nuclease V3 (Integrated DNA Technologies) to form the ribonucleoprotein (RNP) complex. The double-stranded DNA homology-directed repair (HDR) template (HiBiT–BRD4 with extensions, shown below), the RNP complex and an electroporation enhancer (Integrated DNA Technologies) were then electroporated into Jurkat cells using an Amaxa 4D-Nucleofector (Lonza). Electroporated cells were transferred to medium with HRD enhancer (Integrated DNA Technologies). Single cells were subsequently isolated by fluorescence-activated cell sorting and HiBiT expression from individual clones was detected with the Nano-Glo HiBiT lytic detection system (Promega). Sequences for the crRNA and HDR donor are provided below.
Endogenous BRD4 protein levels were evaluated using the Nano-Glo HiBiT lytic detection system (Promega). In brief, 1.5 × 10^4 HiBiT–BRD4 Jurkat cells were seeded into 384-well plates and incubated with the indicated concentrations of compounds. After 5 h, the plates were subjected to a Nano-Glo HiBiT lytic detection system as described in the manufacturer’s manual. The HiBiT–BRD4 assays were conducted in biological triplicates.

[2] = biological target: T3, FAM–BRD4BD1 + YPEL5–WDR26 module (Homo sapiens, UniProt O60885+P62699); test: FP assay quantifying ternary complex formation; conditions: *BRD4BD1 binding to YPEL5–WDR26 upon degrader titration
T3 construct: fluorescent BRD4 bromodomain substrates, either in isolation (BRD4BD1 and BRD4BD2) or in tandem (BRD4BD1+BD2); GST (N, cleaved yes); made in house; host or cells: BRD4BD1: E. coli BL21 (DE3) RIL; YPEL5–WDR26ΔCTLH: Trichoplusia ni High Five insect cells
Source text: The potency of the degraders was expressed as the EC50 estimated by nonlinear regression using a four-parameter [agonist] versus response model.

YPEL5 = biological target: T4, YPEL5 (Homo sapiens, UniProt P62699); test: Octet BLI, binary affinity of degrader for YPEL5 (no BRD4BD1); type: binding; conditions: absence of BRD4BD1
T4 construct: made in house; host or cells: Trichoplusia ni High Five insect cells
Method: To quantify interactions between the degrader-bound neosubstrates and the CTLH E3 neosubstrate receptor module, we determined the KD using Octet BLI.
For each measurement, one of the loaded sensors was dipped in the reference solution containing 0 or 5 μM degrader in the BLI binding buffer (in the absence of the analyte protein). The reference response values were subtracted from the responses elicited by all the neosubstrate-containing solutions before data analysis. All BLI experiments were carried out at 20 °C using the eight-channel Octet R8 system (Sartorius). Concentrated proteins and compounds were diluted in the BLI binding buffer composed of 25 mM HEPES pH 7.5, 150 mM NaCl, 1 mM DTT and 0.05% Tween-20.
The raw data were processed with Octet analysis software (Sartorius) by applying a global fitting with linked Rmax values (assuming a 1:1 binding model). […] KD was estimated by nonlinear regression using the one-site binding model.

BRD4BD1+BD2 = biological target: T5, BRD4BD1+BD2 (Homo sapiens, UniProt O60885); test: BRD4 reporter stability analysis, BRD4BD1+BD2–eGFP (K562-Cas9, flow cytometry); type: cell-based; conditions: K562, 16 h
T5 construct: host or cells: K562-Cas9
Method: (§1) The Cilantro 2 reporter vector (PGK.BsmBICloneSite-10aaFlexibleLinker-eGFP.IRES.mCherry. cppt.EF1α.PuroR; Addgene, 74450) was used for flow-based degradation assays. […] Reporter cell lines were generated as described previously.
(§2) Then, 50 µl of cell suspension was seeded in 384-well plates and immediately treated with DMSO or drug for 16 h. The indicated drugs were dispensed with a D300 digital dispenser (Tecan Genomics). The fluorescence signal was quantified by flow cytometry (FACSymphony flow cytometer, BD Biosciences). Using FlowJo (flow cytometry analysis software, BD Biosciences), the geometric mean of the eGFP and mCherry fluorescent signal for round and mCherry-positive cells was calculated. The ratio of eGFP to mCherry was normalized to the average of ten DMSO-treated controls.

BRD4BD2 = biological target: T6, BRD4BD2 (Homo sapiens, UniProt O60885); test: BRD4 reporter stability analysis, BRD4BD2–eGFP (K562-Cas9, flow cytometry); type: cell-based; conditions: for DC50: BRD4BD2 reporter, K562, 16 h; for Dmax: K562
T6 construct: host or cells: K562-Cas9
Method: as §1, §2

[3] = tested on: FAM–BRD4BD1 + YPEL5–WDR26; test: Real-time FP monitoring the rate of ternary complex formation; type: binding, human; conditions: in vitro, DTT-containing buffer
Method: Here, the concentration of DTT in the binding buffer used for preparing the tracer–E3 ligase mixture varied from 0.1 to 5 mM.

Plasma stability, mouse = type: in vitro ADME; conditions: read-out: Plasma Stability (T1/2 min)
Plasma stability, human = type: in vitro ADME; conditions: read-out: Plasma Stability (T1/2 min)
BRD2, BRD3, BRD4 = test: Western blotting of BET protein degradation; type: cell-based, human; conditions: immunoblotting (and proteome-wide MS)
Method: Total cells lysates were prepared in 2× sample loading buffer (that is, 250 mM Tris-HCl pH 6.8, 4% SDS, 10% glycerol, 0.006% bromophenol blue, 2% β-mercaptoethanol, 50 mM sodium fluoride and 5 mM sodium orthovanadate). The samples with cell lysates were boiled for 5–8 min at 95 °C. The protein concentrations of the cell lysates were quantified using the BCA method and a BCA protein assay kit (Thermo Fisher Scientific). […] After washing the membranes with PBS for 30 min, the membranes were detected on a Li-COR Odyssey CLx system.

BRD2BD1 = biological target: T7, BRD2BD1 (Homo sapiens, UniProt P25440); test: Cellular fluorescent reporter assay, BRD2 BD1; type: cell-based
T7 construct: Cellular fluorescent reporter assay testing ZZ1-induced degradation of BRD2 and BRD3 BD1 bromodomains; expressed in transfected cells
Method: as §2

BRD4BD1 = biological target: T8, BRD4BD1 (Homo sapiens, UniProt O60885); test: cell-based; type: cell-based; conditions: K562, 16 h
T8 construct: host or cells: K562-Cas9
Method: Reporter cell lines were generated as described previously.
as §2

BRD3BD1 = biological target: T9, BRD3BD1 (Homo sapiens, UniProt Q15059); test: Cellular fluorescent reporter assay, BRD3 BD1; type: cell-based
T9 construct: Cellular fluorescent reporter assay testing ZZ1-induced degradation of BRD2 and BRD3 BD1 bromodomains; expressed in transfected cells
Method: as §2

T7 sequence (P25440 74-180 limits assumed): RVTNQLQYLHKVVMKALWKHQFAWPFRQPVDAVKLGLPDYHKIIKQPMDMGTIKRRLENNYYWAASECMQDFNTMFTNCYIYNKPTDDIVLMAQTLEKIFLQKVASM
T9 sequence (Q15059 34-140 limits assumed): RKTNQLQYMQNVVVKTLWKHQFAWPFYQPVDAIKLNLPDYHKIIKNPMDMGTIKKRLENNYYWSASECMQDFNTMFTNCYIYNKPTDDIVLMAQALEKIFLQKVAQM
T4 sequence (P62699 2-121): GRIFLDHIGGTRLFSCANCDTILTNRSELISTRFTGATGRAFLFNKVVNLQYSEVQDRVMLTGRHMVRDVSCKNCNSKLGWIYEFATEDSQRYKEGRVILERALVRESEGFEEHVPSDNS

CN(C)C/C=C/C(=O)Nc1cc2c(Nc3ccc(F)c(Cl)c3)ncnc2cc1O[C@H]1CCOC1 [Afatinib, reference compound]
half-life (GSH chemical stability; glutathione (GSH) solution): 25.2 min | remaining at 5 min (GSH chemical stability; glutathione (GSH) solution): 82.1% | remaining at […] (GSH chemical stability; glutathione (GSH) solution): 48.1% | remaining at 0.5 h (GSH chemical stability; glutathione (GSH) solution): 27.6% | remaining at 1 h (GSH chemical stability; glutathione (GSH) solution): 13.8% | remaining at 2 h (GSH chemical stability; glutathione (GSH) solution): 3.43%

Cc1sc2c(c1C)C(c1ccc(Cl)cc1)=N[C@@H](CC(=O)OC(C)(C)C)c1nnc(C)n1-2 [JQ1, reference compound]
disruption of the ternary complex [1]: could disrupt the ternary complex

CCN(CC)CCNC(=O)c1c(C)[nH]c(/C=C2\C(=O)Nc3ccc(F)cc32)c1C [Sunitinib, reference compound]
microsomal CLint (Microsome stability, MLM): 38 µL/min/mg | half-life (Microsome stability, MLM): 36.5 min | microsomal CLint (Microsome stability, HLM): 32 µL/min/mg | half-life (Microsome stability, HLM): 43.5 min

Cc1sc2c(c1C)C(c1ccc(NC(=O)c3ccc(S(=O)O)c(Cl)c3)cc1)=N[C@@H](CC(=O)OC(C)(C)C)c1nnc(C)n1-2 [ZZ1-SO2H]
BRD4BD1 ubiquitylation in vitro (*BRD4BD1 / YPEL5-CTLH E3): promoted robust BRD4BD1 ubiquitylation | activity in cellular assays (BRD4): inactive | EC50 [2]: 60 nM and ~60 nM and 74 nM | affinity between degrader and YPEL5 by BLI (YPEL5): did not observe measurable affinity

Cc1sc2c(c1C)C(c1ccc(NC(=O)c3ccc(S(=O)(=O)O)c(Cl)c3)cc1)=N[C@@H](CC(=O)OC(C)(C)C)c1nnc(C)n1-2 [ZZ1-SO3H]
BRD4BD1 ubiquitylation in vitro (*BRD4BD1 / YPEL5-CTLH E3): promoted robust BRD4BD1 ubiquitylation | activity in cellular assays (BRD4): inactive

Cc1sc2c(c1C)C(c1ccc(NC(=O)c3ccc(S(=O)(=O)F)c(Cl)c3)cc1)=N[C@@H](CC(=O)OC(C)(C)C)c1nnc(C)n1-2 [ZZ1]
microsomal CLint (Microsome stability, MLM): 254 µL/min/mg | half-life (Microsome stability, MLM): 5.5 min | DC50 (BRD4BD1+BD2): 75 ± 16.4 nM | Dmax (BRD4BD1+BD2): 80% | DC50 (BRD4BD2): 532 ± 80.2 nM | Dmax (BRD4BD2): 40% | rate of ternary complex formation [3]: induced ternary complex formation slowly | half-life (Plasma stability, mouse): 57 min | Dmax (BRD4; Jurkat): 82% | DC50 (BRD4; Jurkat cells pretreated with MG132 for 1 h, then ZZ1 5 h): > 20000 nM | DC50 (BRD4; Jurkat cells pretreated with MLN-4924 for 1 h, then ZZ1 5 h): 1400 ± 130 nM | DC50 (BRD4; Jurkat cells, 5 h): 502 nM and 489 nM | DC50 (BRD4; Jurkat, 5 h, cells pretreated with 100 μM GSH for 2 h): 152 ± 19 nM | DC50 (BRD4; Jurkat, 5 h, no GSH pre-treatment): 237 ± 20 nM | DC50 (BRD4; WT YPEL5-expressing Jurkat cells, 5 h): 168 ± 15 nM | DC50 (BRD4; YPEL5 L62A-expressing Jurkat cells, 5 h): 841 ± 137 nM | DC50 (BRD4; YPEL5 R41A-expressing Jurkat cells, 5 h): 719 ± 102 nM | DC50 (BRD4; YPEL5 T36A-expressing Jurkat cells, 5 h): 971 ± 176 nM | half-life (Plasma stability, human): 45 min | microsomal CLint (Microsome stability, HLM): 195 µL/min/mg | half-life (Microsome stability, HLM): 7.1 min | BET protein degradation (BRD2, BRD3, BRD4): induced selective degradation of BET proteins (BRD3, BRD4 and, to a lesser extent, BRD2); also recorded: especially potent in the Ewing sarcoma TC-71 cell line | DC50 (BRD2BD1): 70.1 ± 3.6 nM | Dmax (BRD2BD1): 63% | DC50 (BRD4BD1; BRD4BD1 reporter): 126 nM and 128 nM | Dmax (BRD4BD1; BRD4BD1 reporter): 88% | Dmax (BRD4BD1; K562, BRD4BD1 reporter): 69% | DC50 (BRD3BD1): 33.5 ± 5.4 nM | Dmax (BRD3BD1): 73% | half-life (GSH chemical stability; buffer): < 5 min | remaining at 5 min (GSH chemical stability; buffer): 26.7% | remaining at […] (GSH chemical stability; buffer): 9.36% | remaining at 0.5 h (GSH chemical stability; buffer): 3.21% | remaining at 1 h (GSH chemical stability; buffer): 3.12% | remaining at 2 h (GSH chemical stability; buffer): 2.27%

Cc1sc2c(c1C)C(c1ccc(NC(=O)c3cc(Cl)c(S(=O)O)c(Cl)c3)cc1)=N[C@@H](CC(=O)OC(C)(C)C)c1nnc(C)n1-2 [ZZ2-SO2H, 4-((4-((S)-6-(2-(tert-butoxy)-2-oxoethyl)-2,3,9-trimethyl-6H-thieno[3,2-f][1,2,4]triazolo[4,3-a][1,4]diazepin-4-yl)phenyl)carbamoyl)-2,6-dichlorobenzenesulfinic acid]
BRD4BD1 ubiquitylation in vitro (*BRD4BD1 / YPEL5-CTLH E3): promotes more robust BRD4BD1 ubiquitylation | EC50 [2]: < 74 nM

Cc1sc2c(c1C)C(c1ccc(NC(=O)c3cc(Cl)c(S(=O)(=O)F)c(Cl)c3)cc1)=N[C@@H](CC(=O)OC(C)(C)C)c1nnc(C)n1-2 [ZZ2]
microsomal CLint (Microsome stability, MLM): 741 µL/min/mg | half-life (Microsome stability, MLM): 1.9 min | DC50 (BRD4BD2): 198 ± 75.5 nM | Dmax (BRD4BD2): 31% | rate of ternary complex formation [3]: much faster rate | half-life (Plasma stability, mouse): 7 min | DC50 (BRD4; Jurkat cells, 5 h): 169 nM | half-life (Plasma stability, human): 14 min | microsomal CLint (Microsome stability, HLM): 670 µL/min/mg | half-life (Microsome stability, HLM): 2.1 min | DC50 (BRD2BD1): 46.4 ± 6.6 nM | Dmax (BRD2BD1): 76% | DC50 (BRD4BD1; BRD4BD1 reporter): 91 ± 8.8 nM | Dmax (BRD4BD1; K562, BRD4BD1 reporter): 81% | DC50 (BRD3BD1): 21.1 ± 3.1 nM | Dmax (BRD3BD1): 82% | half-life (GSH chemical stability; buffer): < 5 min | remaining at 5 min (GSH chemical stability; buffer): 9.27% | remaining at […] (GSH chemical stability; buffer): 4.72% | remaining at 0.5 h (GSH chemical stability; buffer): 0% | remaining at 1 h (GSH chemical stability; buffer): 0% | remaining at 2 h (GSH chemical stability; buffer): 0%
